Laboratory results reported in article PMC3386472 (Journal of Medicinal Chemistry, 2012).
“Also recorded” adds a separate entry of the source.

Assays:
[1] = test system: MPTP- and lactacystin-lesioned animal models; settings: cited from earlier work
[2] = test system: reserpine-treated rats; assay: Reversal of reserpine-induced hypolocomotion in rats; settings: 5 µmol/kg, sc; for P compared to reserpine control (Dunnett's analysis post one-way ANOVA): horizontal locomotor activity; for Reversal of reserpine-induced hypolocomotion (horizontal activity): reserpine 5 mg/kg sc 18 h before, monitored 6 h
[3] = molecular target: human D2 receptor (Homo sapiens, UniProt P14416); assay: Stimulation of [35S]GTPγS binding, cloned human D2 receptor in CHO cells; settings: [35S]GTPγS functional assay, % Emax vs DA
human D2 receptor, sequence (P14416 whole entry): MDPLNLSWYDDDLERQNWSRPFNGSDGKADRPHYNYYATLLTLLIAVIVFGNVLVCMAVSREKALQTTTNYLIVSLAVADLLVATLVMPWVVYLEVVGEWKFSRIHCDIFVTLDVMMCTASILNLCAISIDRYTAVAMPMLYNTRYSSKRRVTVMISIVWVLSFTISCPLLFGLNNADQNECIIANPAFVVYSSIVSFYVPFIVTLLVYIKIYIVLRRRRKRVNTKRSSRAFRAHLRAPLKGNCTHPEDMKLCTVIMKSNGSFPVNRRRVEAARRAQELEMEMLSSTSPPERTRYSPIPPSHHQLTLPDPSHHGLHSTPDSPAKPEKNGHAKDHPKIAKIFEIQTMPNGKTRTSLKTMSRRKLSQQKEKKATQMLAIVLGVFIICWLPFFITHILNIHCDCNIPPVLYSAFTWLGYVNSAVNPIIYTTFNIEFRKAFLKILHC

[4] = molecular target: human D3 receptor (Homo sapiens, UniProt P35462); assay: Stimulation of [35S]GTPγS binding, cloned human D3 receptor in CHO cells
human D3 receptor, sequence (P35462 whole entry): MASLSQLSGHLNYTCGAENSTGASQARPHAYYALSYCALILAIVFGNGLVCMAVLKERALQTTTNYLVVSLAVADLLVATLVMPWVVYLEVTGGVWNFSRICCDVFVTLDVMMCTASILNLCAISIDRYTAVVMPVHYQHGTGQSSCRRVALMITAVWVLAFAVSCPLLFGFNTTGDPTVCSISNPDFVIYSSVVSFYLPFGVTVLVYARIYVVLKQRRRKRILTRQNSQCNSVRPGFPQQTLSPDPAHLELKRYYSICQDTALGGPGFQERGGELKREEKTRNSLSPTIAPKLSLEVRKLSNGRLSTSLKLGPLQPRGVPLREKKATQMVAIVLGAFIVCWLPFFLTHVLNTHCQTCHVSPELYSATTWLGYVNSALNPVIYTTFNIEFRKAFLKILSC

In the case of `CCCN(CCN1CCN(c2ccc(-c3ccccc3)cc2)CC1)[C@H]1CCc2nc(N)sc2C1` [Compound D-264], the “Neuroprotection in PD animal models” value ([1]; MPTP and lactacystin models) is given as “neuroprotective” and the “Behavioral syndromes in PD mouse models” value ([1]; acute MPTP and progressive lactacystin mouse models) is given as “significantly improved behavioral syndromes”.
With `CCCN(CCC)CCc1cccc2c1CC(=O)N2.Cl` [ropinirole] the “P compared to reserpine control (Dunnett's analysis post one-way ANOVA)” value [2] was < 0.05 and the “Reversal of reserpine-induced hypolocomotion (horizontal activity)” value [2] was “significant locomotor activation”.
With `CCCN(CCN1CCN(C(=O)c2c[nH]c3ccccc23)CC1)[C@H]1CCc2nc(N)sc2C1` [Compound (−)-45, (S)-(4-{2-[(2-Amino-4,5,6,7-tetrahydrobenzothiazol-6-yl)propylamino]ethyl}piperazin-1-yl)-(1H-indol-3-yl)methanone] the “Agonist activity at D2 receptor (in words)” value [3] was “full agonist activity” and the “Agonist activity at D3 receptor (in words)” value ([4]; [35S]GTPγS functional assay, % Emax vs DA) was “full agonist activity”.
In the case of `CCCN(CCN1CCN(c2ccc3[nH]ccc3c2)CC1)[C@H]1CCc2nc(N)sc2C1` [Compound (−)-19, (S)-N^6-{2-[4-(1H-Indol-5-yl)piperazin-1-yl]ethyl}-N^6-propyl-4,5,6,7-tetrahydro benzothiazole-2,6-diamine], the “P compared to reserpine control (Dunnett's analysis post one-way ANOVA)” value [2] is reported as < 0.01 and the “Reversal of reserpine-induced hypolocomotion (horizontal activity)” value [2] is reported as “significantly reversing akinesia; also recorded: significant, long-lasting reversal of hypolocomotion”.
Compound `CCCN(CCN1CCN(c2nccc3ccccc23)CC1)[C@H]1CCc2nc(N)sc2C1` [Compound D-301] has an Emax ([4]; CHO, read-out: hCHO-D3 % Emax) of 102 ± 2%.
